From patent US8273404B2, “Extraction of solvents from drug containing polymer reservoirs” (Cordis Corporation, priority 2008, dated 2012)

Legend:
[1] = Liquid formulations of sirolimus and CCI-779: concentration by liquid chromatography/HPLC, visual observation; type: physicochemical
[2] = test system: human coronary artery smooth muscle cells; test: Anti-proliferative activity in cultured human coronary artery smooth muscle cells stimulated with two percent fetal bovine serum; type: cell-based; conditions: for effect of the added agent on the anti-proliferative activity of rapamycin: agent added to rapamycin treated human coronary artery smooth muscle cells; for effect of the added agent on the anti-proliferative activity of rapamycin / inhibition of human coronary artery smooth muscle cell proliferation (in words): two percent fetal bovine serum; for inhibition of human coronary artery smooth muscle cell proliferation (in words): agent alone
Excerpt: The multiple curves represent various concentrations of mycophenolic acid ranging from zero to one thousand nanomolar concentrations.
FIG. 58 illustrates, in graphical format, the anti-proliferative activity of cladribine in non-synchronized cultured human coronary artery smooth muscle cells stimulated with two percent fetal bovine serum.
The multiple curves represent various concentrations of cladribine ranging from zero to nine hundred nanomolar concentrations.
(§1) The multiple curves represent various concentrations of topotecan ranging from zero to three hundred nanomolar concentrations.
(§2) The multiple curves represent various concentrations of etoposide ranging from zero to eight hundred nanomolar concentrations.
The multiple curves represent various concentrations of Panzem® ranging from zero to 100 micromolar concentrations.
Curve 8702 illustrates the percent inhibition for various concentrations. In FIG. 88, the six curves 8802, 8804, 8806, 8808, 8810 and 8812 represent various concentrations of PX867 with various concentrations of sirolimus. […] More specifically, curve 8812 illustrates the percent inhibition for a 240 nM PX-867 concentration. […] This may be compared to curve 8804 which represents a 15 nM PX-867 concentration.

[3] = test system: human coronary artery smooth muscle cell; test: MTS cytotoxicity assay of Panzem; type: cell-based; conditions: concentrations up to 30,000.00 nanomolar
Excerpt: Typically, a control is utilized to determine baseline toxicity.

[4] = In vitro release kinetics from coated stents; type: physicochemical; conditions: single-layer sirolimus/cilostazol coating of FIG. 83
[5] = In vivo release kinetics from coated stents, porcine pharmacokinetics studies; conditions: combination coatings with rapamycin
Excerpt: The topcoat is two hundred micro grams.
FIG. 61 is a graphical representation of the in vivo release kinetics of cladribine from a polymeric coating on Bx Velocity® stents, available from Cordis Corporation, implanted in a Yorkshire pig. The basecoat comprises an 85/15 ratio of PVDF and HFP and cladribine for a total combined weight of one thousand eight hundred micrograms (cladribine comprising thirty percent of the total weight). The topcoat comprises an 85/15 ratio of PVDF/HFP and no cladribine. The total weight of the topcoat is three hundred micrograms.
(§3) The basecoat is applied to Bx Velocity® stents and implanted into Yorkshire pigs.
as §3
Another critical parameter for the performance of the thrombus resistance of a device coated with cilostazol is the duration of the drug release from the coating. This is of particular significance in the two weeks after device implantation. […] The purpose of the porcine PK study is to assess the local pharmacokinetics of a drug eluting stent at a given implantation time. Normally three stents are implanted in three different coronary arteries in a pig for a given time point and then retrieved for total drug recovery analysis. The stents are retrieved at predetermined time points; namely, 1, 3 and 8 days. The stents are extracted and the total amount of drug remaining on the stents is determined by analysis utilizing HPLC (high performance liquid chromatography) for total drug amount. The difference between the original amount of drug on the stent and the amount of drug retrieved at a given time represents the amount of drug released in that period. The continuous release of drug into surrounding arterial tissue is what prevents the neointimal growth and restenosis in the coronary artery. A normal plot represents the percentage of total drug released (%, y-axis) vs. time of implantation (day, x-axis). […] Curve 8102 represents cilostazol and curve 8104 represents sirolimus. […] In this exemplary configuration, the stent 8300 is coated with two layers. […]

[6] = Cell viability assay (cytotoxicity of topotecan, etoposide); type: cell-based
Excerpt: as §1, §2

[7] = Injectable liquid formulations of paclitaxel: composition and observation; type: physicochemical
Excerpt: This solution remained clear.

[8] = test system: human coronary artery smooth muscle cell; test: Inhibition of coronary artery smooth muscle cell proliferation by trichostatin A, in vitro cell culture study; type: cell-based; conditions: read-out: anti-proliferative IC50
Excerpt: FIG. 51 is a graph of the inhibition of coronary artery smooth muscle cells by trichostatin A in a cell culture study.

tumor cell lines = tumor cell lines (Woo et al.); cited from earlier work

In the case of `CO[C@H]1C[C@@H]2CC[C@@H](C)[C@@](O)(O2)C(=O)C(=O)N2CCCC[C@H]2C(=O)O[C@H]([C@H](C)C[C@@H]2CC[C@@H](OC(=O)C(C)(CO)CO)[C@H](OC)C2)CC(=O)[C@H](C)/C=C(\C)[C@@H](O)[C@@H](OC)C(=O)[C@H](C)C[C@H](C)/C=C/C=C/C=C/1C` [CCI-779], the “concentration of CCI-779 in the final solution (HPLC)” value ([1]; ethanol, Vitamin E TPGS, water) is reported as 15000 µg/mL.
In the case of `COC[C@H]1OC(=O)/C(=C\N2CCCC2)C2=C(O)C(=O)C3=C([C@H](OC(C)=O)C[C@]4(C)C(=O)CC[C@@H]34)[C@]21C` [PX-867], the “percent inhibition of coronary artery smooth muscle cell proliferation” value ([2]; PX867 alone at a concentration of about 10^−6) is reported as “close to one hundred percent inhibition” and the “effect of the added agent on the anti-proliferative activity of rapamycin” value (shortened to “effect of the added agent”) [2] is reported as “strong synergistic effect”.
With `COc1cc2c(cc1O)CC[C@@H]1[C@@H]2CC[C@]2(C)[C@@H](O)CC[C@@H]12` [Panzem®, 2-methoxyestradiol] the “effect of the added agent” value [2] was “increases the percent of inhibition of rapamycin alone”, the “inhibition of human coronary artery smooth muscle cell proliferation (in words)” value [2] was “extremely effective inhibitor” and the “cell survival in MTS assay” value [3] was “do not reduce human coronary artery smooth muscle cell survival”.
Work on `O=C1CCc2cc(OCCCCc3nnnn3C3CCCCC3)ccc2N1` [cilostazol, 6[4-(1-cyclohexyl-1H-tetrazol-5-yl)-butoxy]-3,4-dihydro-2-(1H)-quinolinone] yielded a release in vitro [4] of roughly 35%.
In the case of `Nc1nc(Cl)nc2c1ncn2[C@H]1C[C@H](O)[C@@H](CO)O1` [cladribine, 2-chlorodeoxyadenosine], the “effect of the added agent” value [2] is reported as “potentiate the anti-proliferative activity of rapamycin”, the “inhibition of human coronary artery smooth muscle cell proliferation (in words)” value [2] is reported as “completely inhibits human coronary artery smooth muscle cell proliferation” and the “relative elution from polymeric stent coating in vivo (in words)” value (“relative elution” below) [5] is reported as “elutes more rapidly than rapamycin”.
In the case of `COc1cc([C@@H]2c3cc4c(cc3[C@@H](O[C@@H]3O[C@@H]5CO[C@@H](C)O[C@H]5[C@H](O)[C@H]3O)[C@H]3COC(=O)[C@H]23)OCO4)cc(OC)c1O` [etoposide], the “effect of the added agent” value [2] is reported as “potentiate the anti-proliferative activity of rapamycin” and the “cytotoxicity in cell viability assay” value ([6]; concentrations up to ten micromolar) is reported as “non-cytotoxic”.
In the case of `COc1c(C)c2c(c(O)c1C/C=C(\C)CCC(=O)O)C(=O)OC2` [mycophenolic acid], the “effect of the added agent” value [2] is reported as “potentiates the anti-proliferative activity of rapamycin” and the “relative elution” value [5] is reported as “elutes more completely over a shorter duration than the rapamycin”.
In the case of `CC(=O)O[C@H]1C(=O)[C@@]2(C)[C@H]([C@H](OC(=O)c3ccccc3)[C@]3(O)C[C@H](OC(=O)[C@H](O)[C@@H](NC(=O)c4ccccc4)c4ccccc4)C(C)=C1C3(C)C)[C@]1(OC(C)=O)CO[C@@H]1C[C@@H]2O` [paclitaxel], the “paclitaxel concentration as true liquid formulation” value [7] is reported as “up to 2.5 mg/ml” and the “fold higher than the solubility of paclitaxel in water” value ([7]; 2.5 mg/ml formulation) is reported as “about 1000 fold”.
In the case of `CO[C@H]1C[C@@H]2CC[C@@H](C)[C@@](O)(O2)C(=O)C(=O)N2CCCC[C@H]2C(=O)O[C@H]([C@H](C)C[C@@H]2CC[C@@H](O)[C@H](OC)C2)CC(=O)[C@H](C)/C=C(\C)[C@@H](O)[C@@H](OC)C(=O)[C@H](C)C[C@H](C)/C=C/C=C/C=C/1C` [rapamycin], the “relative elution” value [5] is reported as “slower release rate than that of mycophenolic acid” and the “sirolimus concentration relative to the solubility of sirolimus in water” value ([1]; 4 mg/ml PEG 200 formulation) is reported as “about four hundred to about one thousand times higher”.
With `CC[C@@]1(O)C(=O)OCc2c1cc1n(c2=O)Cc2cc3c(CN(C)C)c(O)ccc3nc2-1` [topotecan] the “effect of the added agent” value [2] was “potentiate the anti-proliferative activity of rapamycin” and the “cytotoxicity in cell viability assay” value ([6]; concentrations up to one micromolar) was “non-cytotoxic”.
For `CC(/C=C/C(=O)NO)=C\[C@@H](C)C(=O)c1ccc(N(C)C)cc1` [trichostatin A], the IC50 [8] is listed as roughly 6 nM and the “anti-proliferative IC50's” value (tumor cell lines) is listed as “low nM range”.
